Measurements as given in the supplement of paper PMC10307832.

Legend:
Assay in all cases: relative viability (nuclei count vs DMSO), 5 days (fraction); higher = more cells survive
Bleomycin = compound: CC1=C(N=C(N=C1N)[C@H](CC(=O)N)NC[C@@H](C(=O)N)N)C(=O)N[C@@H]([C@H](C2=CN=CN2)OC3C(C(C(C(O3)CO)O)O)OC4C(C(C(C(O4)CO)O)OC(=O)N)O)C(=O)N[C@H](C)[C@H]([C@H](C)C(=O)N[C@@H]([C@@H](C)O)C(=O)NCCC5=NC(=CS5)C6=NC(=CS6)C(=O)NCCC[S+](C)C)O [Bleomycin]; details: main component drawn
Summary of the method: (§1)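 MetaXpress counted nuclei in 4× images of lung cancer cell lines that had been fixed, permeabilised and Hoechst-stained in one step. Before that, cells in 1536-well plates were kept overnight at 37 °C, pinned with five √10-spaced library-drug doses on vehicle-anchored plates, and cultured 5 days without medium change. Viability takes treated-well nuclei over vehicle-well nuclei and uses the median across plates. Plates were accepted only at control CV below 25% and at least one doubling.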

Etoposide = compound: COc1cc([C@@H]2c3cc4c(cc3[C@@H](O[C@@H]3O[C@@H]5CO[C@@H](C)O[C@H]5[C@H](O)[C@H]3O)[C@H]3COC(=O)[C@H]23)OCO4)cc(OC)c1O [Etoposide]
Summary of the method: as §1

Etoposide + Tozasertib = compound: COc1cc([C@@H]2c3cc4c(cc3[C@@H](O[C@@H]3O[C@@H]5CO[C@@H](C)O[C@H]5[C@H](O)[C@H]3O)[C@H]3COC(=O)[C@H]23)OCO4)cc(OC)c1O [Etoposide] + Cc1cc(Nc2cc(N3CCN(C)CC3)nc(Sc3ccc(NC(=O)C4CC4)cc3)n2)n[nH]1 [Tozasertib] (partner 0.1 µM)
Summary of the method: (§2)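 A single step with final 0.05% Triton X-100, 1% formaldehyde and 1 ug/ml Hoechst fixed the cells and stained nuclei 5 days after treatment. Lung cancer cell lines in 1536-well plates had been treated by pin tool the day after seeding with one drug alone or a fixed anchor-drug dose plus five library-drug doses (not always all listed) in √10 steps, and nuclei were counted on 4× images. Relative viability is the ratio of nuclei in treated wells to nuclei in vehicle wells, taken as the median of duplicate plates.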

Bleomycin + Navitoclax = compound: CC1=C(N=C(N=C1N)[C@H](CC(=O)N)NC[C@@H](C(=O)N)N)C(=O)N[C@@H]([C@H](C2=CN=CN2)OC3C(C(C(C(O3)CO)O)O)OC4C(C(C(C(O4)CO)O)OC(=O)N)O)C(=O)N[C@H](C)[C@H]([C@H](C)C(=O)N[C@@H]([C@@H](C)O)C(=O)NCCC5=NC(=CS5)C6=NC(=CS6)C(=O)NCCC[S+](C)C)O [Bleomycin] + CC1(C)CCC(c2ccc(Cl)cc2)=C(CN2CCN(c3ccc(C(=O)NS(=O)(=O)c4ccc(N[C@H](CCN5CCOCC5)CSc5ccccc5)c(S(=O)(=O)C(F)(F)F)c4)cc3)CC2)C1 [Navitoclax] (partner 0.5 µM); details: main component drawn
Summary of the method: as §2

Cell Line: UMC-11
- relative viability (Bleomycin; 0.01 µM): 0.936
- relative viability (Bleomycin; 0.03162 µM): 0.918
- relative viability (Bleomycin; 0.1 µM): 0.922
- relative viability (Bleomycin; 0.3162 µM): 0.769
- relative viability (Bleomycin; 1 µM): 0.496
- relative viability (Etoposide; 0.01 µM): 0.999
- relative viability (Etoposide; 0.03162 µM): 1.06
- relative viability (Etoposide; 0.1 µM): 0.507
- relative viability (Etoposide; 0.3162 µM): 0.607
- relative viability (Etoposide; 1 µM): 0.343
- relative viability (Etoposide + Tozasertib; first compound 0.01 µM): 0.209
- relative viability (Etoposide + Tozasertib; first compound 0.03162 µM): 0.205
- relative viability (Etoposide + Tozasertib; first compound 0.1 µM): 0.186
- relative viability (Etoposide + Tozasertib; first compound 0.3162 µM): 0.206
- relative viability (Etoposide + Tozasertib; first compound 1 µM): 0.235
- relative viability (Bleomycin + Navitoclax; first compound 0.01 µM): 0.376
- relative viability (Bleomycin + Navitoclax; first compound 0.03162 µM): 0.264
- relative viability (Bleomycin + Navitoclax; first compound 0.1 µM): 0.286
- relative viability (Bleomycin + Navitoclax; first compound 0.3162 µM): 0.22
- relative viability (Bleomycin + Navitoclax; first compound 1 µM): 0.205
